According to patent publication US20040115801A1, “Model epithelial cell cultures” (KINETANA GROUP INC., priority 2002, published 2004):
Where two headings read alike, the source gives them in different places.

How the values were obtained:
[1] = system: cell layer of the invention; test: Ginkgo extract ingredient profiles, apical vs basal side of the cell layer; assay type: in vitro ADME, human
Procedure: FIG. 8. Representative chromatogram of intact flavonol glycosides determined in fluid from the apical side of the cell layer 60 minutes after application of standardized ginkgo extract (equivalent of 10 mg extract).
FIG. 9. Representative chromatogram of intact flavonol glycosides determined in fluid from the basal side of the cell layer 60 minutes after application of standardized ginkgo extract (equivalent of 10 mg extract).
FIG. 10. Representative chromatogram of ginkgolides determined in fluid from the apical side of the cell membrane 60 minutes after application of standardized ginkgo extract (equivalent of 20 mg extract).
FIG. 11. Representative chromatogram of ginkgolides determined in fluid from the basal side of the cell layer 60 minutes after application of standardized ginkgo extract (equivalent of 400 mg extract).
In some embodiments, compositions for processing in accordance with the methods of the invention may include natural substances, such as crude extracts or formulations from natural products such as plants, which may be dissolved or suspended in an aqueous solution, such as a pH buffered solution or an artificial intestinal fluid. In alternative embodiments, a sample of these substances may be treated with artificial gastric juices to test prior to processing with the cell layers of the invention, for example to test for potential decomposition of ingredients under acidic conditions. In some embodiments, a known concentration of the solution or composition for processing, in either buffered solution or artificial intestinal fluid, may be applied to the apical or first side of the cell layer (membrane). Subsequently, one or more samples may be collected from the basal or second side of the cell layer, which may for example contain a cell culture medium or human plasma or components of human plasma such as albumin. In alternative embodiments, samples may be taken from the apical and basal sides for ingredient identification and/or quantification. Common analytical approaches such as high performance liquid chromatography (HPLC), mass spectrometry (MS), gas chromatography (GC), LC/MS, or GC/MS may then be used for the identification or quantification of the components present in the physiologically modified composition.
Although the invention may be used to conduct permeability screening in a manner similar to how Caco-2 the industry standard is used, it has a unique and novel application in identifying absorbable active ingredients in natural health products (or natural products or nutraceuticals or botanicals or herbals or dietary supplements) or any products that contain mixtures of ingredients of interest (as marker substances or active ingredients) or botanicals. The idea is as follows. Similar to pharmaceutical development, components are not considered active unless they are absorbed into the blood stream. A number of methods have been developed to measure the activities of botanical extracts; very few have measured the active components, let alone absorbable components that are active. It has been shown time and again that marker components that have in vitro activities are not absorbed. The active ingredient profile determined using in vitro methods is usually erroneous; this is particularly true for the proportion of the ingredients required because the absorption of individual components is potentially different. A good example is the determination of the ingredient profiles of Ginkgo biloba. People think that the ratios of the ingredients in the herb are important (See FIGS. 8, 10, Tables 3, 4, apical side ratios). But it is only the absorbed ingredients that can have activity and not all ingredients are absorbed or absorbed at the same rate. Therefore, the profiles of absorbed ingredients will differ from the profiles of ingredients in the product, and it is the absorbed ingredient profiles that are biologically most relevant. […]

SCBN cells [2] = test: TEER of SCBN cell layers in different culture conditions; assay type: cell-based, human; conditions: SCBN cells on rat-tail collagen, supplemented base medium; day 3 (48 hours after medium change)
Procedure: FIG. 1: illustrates the TEER values of SCBN cells in different culture conditions. TEER measurement was conducted by using EVOM voltmeter from World Precision Instrument.
TEER values may be assayed using any conventional equipment capable of measuring electrical resistance, such as […] from World Precision Instruments.
(§1) To assay the structure of microvilli and to measure TEER, SCBN cells were cultured with DMEM media supplemented with FBS and collected at 24 hours post confluence. Harvested cells were seeded at the density of 1E5 cells/well in Falcon multiple insert plates (0.31 cm2/well). […] Forty-eight hours after medium change, SCBN cells were processed for SEM examination following conventional SEM sample preparation. Assessments of microvilli structure were made from SEM images.

SCBN cells [3] = test: Microvilli structure of SCBN cells by SEM; assay type: cell-based, human; conditions: SEM 48 hours after medium change; for length of microvilli: 5 μM Ro31-8220 and/or 5 mM sodium butyrate in base medium
Procedure: as §1

SCBN cells [4] = test: Enzyme expression in SCBN cell lysate; assay type: cell-based, human; conditions: 5 μM Ro 31-8220 alone
Procedure: FIG. 2: illustrates the expression of enzymes in SCBN cells cultured under culture conditions of the invention. Enzyme activity is expressed as milliunit per mg of protein. One unit equals the digestion of one μmole of substrate per minute at 37° C. AP: Alkaline phosphatase; DPP: dipeptidylpeptidase-IV; APN: aminopeptidase N; APA: aminopeptidase A.
To assay patterns of enzyme expression, SCBN cells were cultured with DMEM media supplemented with FBS and collected at 24 hours post confluence. SCBN cells were seeded with DMEM supplemented with FBS at 1E5 cells/well in non-coated and rat-tail collagen-coated Falcon multiple insert plate. Twenty-four hours after seeding media were change with DMEM supplemented with FBS with DMEM supplemented with FBS in non-coated inert wells whereas the media in rat-tail collagen-coated wells were changed with Kinetana base media supplemented with 5 μM of Ro31-8220 and 5 mM of sodium butyrate. Forty-eight hours after medium change, SCBN cells were lysed with ⅕ strength of Tris buffered saline on ice and the whole cell lysate was assayed for enzyme activity by incubating the cell lysate with specific substrate for 60 minutes at 37° C. […]

[5] = system: monolayers of the invention (Kinetana cell line); test: Permeability across monolayers of the invention; assay type: in vitro ADME, human
Text: (§2) (He, Murby et al. 1998) relate the permeability profile of PEG oligomers to tight junction pore size. Their data in CaCo-2 correspond very closely to Kinetana's data with Caco-2, in that there is a steep drop-off in permeability between molecular weights 200 and 450, then a leveling off. The invention permeability, in contrast, declines slowly and continuously from MW 200 to over 1,000 Da (FIG. 3).
(§3) The bioavailability of PEG 900 is reported to be 10% (Yee 1997).

Caco-2 = test: Permeability across CaCo-2 monolayers; assay type: in vitro ADME, human
Text: as §2, §3

[6] = system: Kinetana cells using the Buret growth condition; test: Permeability in Kinetana cells using the Buret growth condition; assay type: in vitro ADME, human
Text: The proprietary growth conditions result in a different paracellular diffusion performance of the Kinetana cell line compared with CaCo-2 and T-84 human colon cancer cell lines (He, Murby et al. 1998) and also SCBN with the Buret condition. The proprietary condition correlates better with human paracellular marker permeability, and this appears to relate to the differences in tight junction pore size between the new method and the others. The evidence for these claims is as follows.
as §3

[7] = Yee 1997; cited from earlier work
[8] = apical side (pre-absorption), six commercial ginkgo extract samples
[9] = basal side (absorbed ingredients), six commercial ginkgo extract samples

Compound: CC(C)(C)[C@]1(O)CC2OC(=O)CC23C(=O)OC2OC(=O)[C@H](O)C231 (some centres unmarked) [Bilobalide]
- Ginkgo terpene lactone components ratio to Ginkgolide A, Apical side Mean [1, 8]: 0.66
- Ginkgo terpene lactone components ratio to Ginkgolide A, Basal side Mean [1, 9]: 0.44

Compound: C[C@@H]1C(=O)O[C@H]2C[C@@]34[C@H]5C[C@@H](C(C)(C)C)[C@]36[C@@H](OC(=O)[C@@H]6O)O[C@@]4(C(=O)O5)[C@]21O [Ginkgolide A]
- Ginkgo terpene lactone components ratio to Ginkgolide A, Apical side Mean [1, 8]: 1.00
- Ginkgo terpene lactone components ratio to Ginkgolide A, Basal side Mean [1, 9]: 1.00

Compound: CC1C(=O)OC2C(O)C34C5CC(C(C)(C)C)C36C(OC(=O)C6O)OC4(C(=O)O5)C12O (centres unmarked) [Ginkgolide B]
- Ginkgo terpene lactone components ratio to Ginkgolide A, Apical side Mean [1, 8]: 0.20
- Ginkgo terpene lactone components ratio to Ginkgolide A, Basal side Mean [1, 9]: 0.12

Compound: Cn1cc(C2=C(c3cn(CCCSC(=N)N)c4ccccc34)C(=O)NC2=O)c2ccccc21 [Ro31-8220, 2-{1-[3-(amidinothio)propyl]-1H-indol-3-yl}-3-(1-meethylindol-3-yl)-maleimide methanesulfonate]
- TEER value (SCBN cells [2]): about 680 ohm.cm^2
- length of microvilli (SCBN cells [3]): did not measurably increase
- percentage of cells with long microvilli (SCBN cells [3]; compared with base medium): did not measurably increase
- expression of alkaline phosphatase activity (SCBN cells [4]): up-regulate

Compound: C[C@@H]1O[C@@H](OC[C@H]2O[C@@H](Oc3c(-c4ccc(O)c(O)c4)oc4cc(O)cc(O)c4c3=O)[C@H](O)[C@@H](O)[C@@H]2O)[C@H](O)[C@H](O)[C@H]1O [Rutin]
- Ginkgo intact flavone components ratio to Rutin, Apical Mean [1, 8]: 1.00
- Ginkgo intact flavone components ratio to Rutin, basal Mean [1, 9]: 1.00

Compound: CCCC(=O)[O-].[Na+] [sodium butyrate]
- TEER value (SCBN cells [2]): about 175 ohm.cm^2
- length of microvilli (SCBN cells [3]): < 0.1 um

Compound: Ginkgolide C
- Ginkgo terpene lactone components ratio to Ginkgolide A, Apical side Mean [1, 8]: 0.32
- Ginkgo terpene lactone components ratio to Ginkgolide A, Basal side Mean [1, 9]: 0.20

Compound: Ginkgolide J
- Ginkgo terpene lactone components ratio to Ginkgolide A, Apical side Mean [1]: 0.86
- Ginkgo terpene lactone components ratio to Ginkgolide A, Basal side Mean [1]: 0.55

Compound: PEG 900
- permeability ([5]; conditions of the invention): ~1 ×10⁻⁶ cm/s
- predicted human bioavailability ([5]; predicted from permeability under conditions of the invention): around 12%
- permeability (Caco-2): too low to be measured
- permeability [6]: too low to be measured
- bioavailability (reported) [7]: 10%
